Measurements reported in patent publication US20210260051A1, “COMBINATION OF EZH2 INHIBITOR AND CHECKPOINT THERAPY FOR THE TREATMENT OF CANCER” (Board of Regents, The University of Texas System, priority 2018, published 2021).

What was measured:
[1] = tested on: GFP+FoxP3+ regulatory T cells (iTregs); assay: RNA sequencing of GFP+FoxP3+ regulatory T cells differentiated with CPI-1205 or DMSO; format: cell-based, mouse; conditions: CPI-1205 vs DMSO
Text: FIGS. 5A-5C: Naïve T cells from FoxP3enhanced green fluorescent protein (eGFP) C57BL/6 mice that were differentiated into iTregs in the presence or absence of CPI-1205. GFP^+FoxP3^+ regulatory T cells were subsequently used for RNA sequencing analysis. (FIG. 5A) Ingenuity Pathway Analysis of RNA sequencing data of regulatory T cells differentiated in the presence of DMSO or CPI-1205. (FIG. 5B) Differentially expressed genes (DEGs) seen following differentiation of inducible regulatory T cells in presence of CPI-1205 or DMSO. (FIG. 5C) Luminex-based cytokine analysis of culture supernatant from inducible regulatory T cells following differentiation with CPI-1205 or DMSO. 2 tailed student t test was used to determine significance; NS, not significant. **p<0.01.
To understand CPI-1205-mediated molecular changes underlying the loss of suppressive activity of regulatory T cells, naïve murine T cells (CD4^+CD25^low CD44^low CD62^hi) from FoxP3-enhanced green fluorescent protein (eGFP) C57BL/6 mice were differentiated into iTregs in the presence or absence of CPI-1205. Purified GFP^+FoxP3^+ regulatory T cells were subsequently used for RNA sequencing analysis. […] The cytokine levels were subsequently examined in the culture supernatant of the iTregs that were differentiated with and without CPI-1205. […] CPI-1205 can also skew the phenotype of iTregs to pro-inflammatory cytokine producing effector-like T cells. In the study, it was noted that EZH2 inhibition leads to decreased expression of not only FoxP3 but also other critical genes, such as NRP1 and BACH2, which are required for regulatory T cell stability (16-18). CPI-1205 treated regulatory T cells seem to acquire the phenotype of so called “exFoxP3” cells which was previously shown to have an activated memory phenotype (Zhou et al., 2009).
In vitro T cell assays. Human peripheral regulatory T cells were isolated from peripheral blood mononuclear cells by enriching for CD4^+CD127^low CD25^+ cells using the EasySep Human Regulatory T Cell Isolation Kit (STEMCELL Technologies, Cambridge, Mass.). For mouse in vitro regulatory T cell differentiation, CD4^+CD25^low CD44^low CD62L^hinaïve splenic T cells were isolated from C57BL/6 mice using BD FACSAria (BD Biosciences, San Jose, Calif.). The cells were then differentiated in the presence of recombinant murine IL-2 (R&D, 402-ML), tumor growth factor-β (TGF-β, R&D 7666-MB), CPI-1205 or dimethyl sulfoxide (DMSO) and cultured for 6 days.
RNA sequencing. RNA was extracted from peripheral CD4 T cells isolated from patients with metastatic melanoma and from in vitro differentiated GFP^+ regulatory T cells. RNA sequencing reactions were performed by Active Motif (Carlsbad, Calif.) and Ocean Ridge Biosciences (Deerfield, Fla.) using an Illumina HiSeq 50-bp platform. For bioinformatics analysis, the raw reads were aligned to the mm10 reference genome using TopHat2. HTSeq count was used to count the raw reads that were uniquely mapped to each gene. DESeq2 was then applied to normalize the raw read counts and identify the differentially expressed genes between the groups. The beta-uniform mixture model was used to fit the p value distribution for multiple testing adjustments. The lists of differentially expressed genes were then used as input into Ingenuity Pathway Analysis for pathway analysis. RNA-sequencing data were deposited in the NCBI's Gene Expression Omnibus database.

MB49 tumor = assay: MB49 tumor-bearing Rag1-/- mice; format: in vivo, mouse; conditions: compared with the untreated group
Text: FIGS. 3A-3F: Blocking expression of EZH2 mediated by anti-CTLA-4 using CPI-1205 increases the effectiveness of anti-CTLA-4 therapy. Tumor growth (FIG. 3A), survival (FIG. 3B) and percentages of intra-tumoral CD4^+CD25^+FoxP3^+ regulatory T cells, CD4^+ICOS^+T-bet^+ and CD8^+IFNγ^+ cells (FIG. 3C) in MB49 tumor-bearing mice treated with vehicle, anti CTLA-4, CPI-1205, or the combination. Tumor growth (FIG. 3D) and percentages of CD4^+IFNγ^+ cells and CD8^+TNFα^+ cells in the lymph nodes (LN) (FIG. 3E) of MB49 tumor-bearing Ezh2^fl/+ and FoxP3^CreEzh2^fl/fl mice treated with anti-CTLA-4 on days 7 and 9. (FIG. 3F) Tumor growth and survival of MB49 tumor-bearing Rag-1^−/− mice treated with vehicle or CPI-1205. Data are representative of three independent experiments (n=10 in each group; one-way ANOVA was used to determine significance between the groups. **p<0.01).
To determine whether the anti-tumoral effect of combination therapy is exclusively due to effector immune response or is an additive effect of CPI-1205 on tumor cells, Rag 1^−/− C57BL/6 mice were used, which have no mature lymphocyte population. MB49 tumor-bearing Ragl^−/− mice were treated with CPI-1205.
Mice. C57BL/6 (5-7 weeks) mice were purchased from the National Cancer Institute (Frederick, Md.). […]

[2] = tested on: CXCL9 and CXCL10 in MB49 tumor; assay: relative CXCL9 and CXCL10 expression in tumor of MB49 tumor-bearing mice; format: in vivo, mouse; conditions: FIG. 10C-D

Compound: COc1cc(C)[nH]c(=O)c1CNC(=O)c1c(C)n([C@H](C)C2CCN(CC(F)(F)F)CC2)c2ccccc12 [CPI-1205, N-[(4-methoxy-6-methyl-2-oxo-1H-pyridin-3-yl)methyl]-2-methyl-1-[(1R)-1-[1-(2,2,2-trifluoroethyl)piperidin-4-yl]ethyl]indole-3-carboxamide]
- pro-inflammatory pathways (Th-1/Th-2), Ingenuity Pathway Analysis ([1]; FIG. 5A): upregulation
- BACH2 expression ([1]; FIG. 5B): decreased
- FoxP3 expression ([1]; FIG. 5B): decreased
- effector cytokines and chemokines (differentially expressed genes) ([1]; FIG. 5B): increase
- neuropilin 1 (NRP1) expression ([1]; FIG. 5B): decreased
- survival (MB49 tumor): No significant difference
- tumor growth (MB49 tumor): No significant difference
- CXCL9 expression in tumor [2]: increased
- CXL10 expression in tumor [2]: increased
